Laboratory results as given in the kinase profiling compilation of Christmann-Franck et al. (2016).
One block for each compound: values may come before it.

What was measured:
Assay in all cases: radiometric filter-binding kinase assay
IGF1R (human) = IGF1R (human) (UniProt P08069)
MARK4 (human) = MARK4 (human) (UniProt Q96L34)
EPHB3 (human) = EPHB3 (human) (UniProt P54753)
LCK (mouse) = conditions: accession and sequence are those of the human protein
MAP3K5 (human) = MAP3K5 (human) (UniProt Q99683)
SRC (human) = SRC (human) (UniProt P12931)
CSK (human) = CSK (human) (UniProt P41240)
EPHA4 (human) = EPHA4 (human) (UniProt P54764)
PAK7 (human) = PAK7 (human) (UniProt Q9P286)
MAP3K9 (human) = MAP3K9 (human) (UniProt P80192)
[1] = tested on: AKT2 (human), P31751 [S474D]
RPS6KA5 KD1 KD2 (human) = RPS6KA5 KD1 KD2 (human) (UniProt O75582)
GSK3B (human) = GSK3B (human) (UniProt P49841)
MAPK1 (human) = MAPK1 (human) (UniProt P28482)
HIPK1 (human) = HIPK1 (human) (UniProt Q86Z02)
MAPK13 (human) = MAPK13 (human) (UniProt O15264)
MAP3K1 (human) = MAP3K1 (human) (UniProt Q13233)
SYK (human) = SYK (human) (UniProt P43405)
YES1 (human) = YES1 (human) (UniProt P07947)
CAMKK2 (human) = CAMKK2 (human) (UniProt Q96RR4)
PAK6 (human) = PAK6 (human) (UniProt Q9NQU5)
HIPK3 (human) = HIPK3 (human) (UniProt Q9H422)
CLK2 (human) = CLK2 (human) (UniProt P49760)
PRKAA1 or PRKAA2 (rat) = conditions: accession and sequence are those of the human protein
DAPK1 (human) = DAPK1 (human) (UniProt P53355)
INSR (human) = INSR (human) (UniProt P06213)
EPHB4 (human) = EPHB4 (human) (UniProt P54760)
ROCK2 (rat) = conditions: accession and sequence are those of the human protein
EPHB1 (human) = EPHB1 (human) (UniProt P54762)
HIPK2 (human) = HIPK2 (human) (UniProt Q9H2X6)
PLK1 (human) = PLK1 (human) (UniProt P53350)
MAPK11 (human) = MAPK11 (human) (UniProt Q15759)
BRSK2 (human) = BRSK2 (human) (UniProt Q8IWQ3)
MAP3K7 TAB1 (human) = MAP3K7 TAB1 (human) (UniProt Q15750+O43318)
PKN2 (human) = PKN2 (human) (UniProt Q16513)
PRKCZ (human) = PRKCZ (human) (UniProt Q05513)

Sequence of MARK4 (human) (Q96L34 whole entry, looked up): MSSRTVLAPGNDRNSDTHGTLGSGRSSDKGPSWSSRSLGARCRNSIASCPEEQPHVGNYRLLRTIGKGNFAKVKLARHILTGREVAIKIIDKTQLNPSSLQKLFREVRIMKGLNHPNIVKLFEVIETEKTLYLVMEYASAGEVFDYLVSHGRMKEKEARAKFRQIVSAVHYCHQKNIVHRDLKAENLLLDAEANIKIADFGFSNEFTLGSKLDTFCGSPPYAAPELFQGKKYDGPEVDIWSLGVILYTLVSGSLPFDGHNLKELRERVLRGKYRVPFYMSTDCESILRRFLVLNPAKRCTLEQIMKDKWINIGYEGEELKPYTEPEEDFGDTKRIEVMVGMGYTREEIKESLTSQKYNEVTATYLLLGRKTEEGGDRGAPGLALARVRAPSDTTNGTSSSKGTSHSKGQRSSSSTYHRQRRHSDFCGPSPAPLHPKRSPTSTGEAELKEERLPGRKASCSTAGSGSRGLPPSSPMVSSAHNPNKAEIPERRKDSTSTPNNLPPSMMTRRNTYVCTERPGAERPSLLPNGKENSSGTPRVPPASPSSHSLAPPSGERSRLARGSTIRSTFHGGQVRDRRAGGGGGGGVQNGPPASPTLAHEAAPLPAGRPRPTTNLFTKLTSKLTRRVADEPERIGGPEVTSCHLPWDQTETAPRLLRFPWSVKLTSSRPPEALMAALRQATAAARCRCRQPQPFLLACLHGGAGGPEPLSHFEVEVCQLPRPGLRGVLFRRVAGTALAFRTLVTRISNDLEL
Sequence of MAP3K5 (human) (Q99683 whole entry, looked up): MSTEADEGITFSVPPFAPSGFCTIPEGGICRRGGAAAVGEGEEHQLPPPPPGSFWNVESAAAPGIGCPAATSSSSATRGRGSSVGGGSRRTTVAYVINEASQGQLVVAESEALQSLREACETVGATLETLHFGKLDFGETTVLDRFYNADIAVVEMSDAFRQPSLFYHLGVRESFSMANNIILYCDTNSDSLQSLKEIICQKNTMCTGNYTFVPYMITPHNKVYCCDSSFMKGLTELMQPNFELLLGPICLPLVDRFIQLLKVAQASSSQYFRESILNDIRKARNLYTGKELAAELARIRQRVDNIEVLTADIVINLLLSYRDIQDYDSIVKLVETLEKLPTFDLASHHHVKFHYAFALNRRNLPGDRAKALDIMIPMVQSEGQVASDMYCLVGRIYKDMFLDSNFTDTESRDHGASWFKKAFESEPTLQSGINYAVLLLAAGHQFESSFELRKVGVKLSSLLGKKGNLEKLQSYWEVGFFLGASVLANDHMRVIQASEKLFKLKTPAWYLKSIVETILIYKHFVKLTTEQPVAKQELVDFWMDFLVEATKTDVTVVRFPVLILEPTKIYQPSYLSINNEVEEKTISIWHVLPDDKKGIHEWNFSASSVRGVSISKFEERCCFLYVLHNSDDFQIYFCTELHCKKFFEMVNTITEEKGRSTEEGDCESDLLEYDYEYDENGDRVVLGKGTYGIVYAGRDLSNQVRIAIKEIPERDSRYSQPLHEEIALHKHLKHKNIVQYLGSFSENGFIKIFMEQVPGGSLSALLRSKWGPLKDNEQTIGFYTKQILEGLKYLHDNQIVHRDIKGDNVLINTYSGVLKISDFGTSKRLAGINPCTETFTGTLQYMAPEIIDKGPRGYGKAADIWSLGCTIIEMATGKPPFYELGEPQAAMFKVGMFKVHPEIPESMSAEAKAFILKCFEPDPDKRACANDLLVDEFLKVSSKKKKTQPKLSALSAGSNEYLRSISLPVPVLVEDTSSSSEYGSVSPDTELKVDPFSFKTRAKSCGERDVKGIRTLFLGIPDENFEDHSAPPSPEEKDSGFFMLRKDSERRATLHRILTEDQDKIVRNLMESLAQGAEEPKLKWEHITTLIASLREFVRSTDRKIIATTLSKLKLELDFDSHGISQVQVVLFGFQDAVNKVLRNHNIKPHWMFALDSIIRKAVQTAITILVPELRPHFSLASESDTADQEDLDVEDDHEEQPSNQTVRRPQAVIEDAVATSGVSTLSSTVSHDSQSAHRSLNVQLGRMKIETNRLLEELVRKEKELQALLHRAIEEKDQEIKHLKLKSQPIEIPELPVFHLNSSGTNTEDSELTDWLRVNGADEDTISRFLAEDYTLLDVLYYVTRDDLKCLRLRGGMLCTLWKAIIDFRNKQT
Sequence of EPHB3 (human) (P54753 whole entry, looked up): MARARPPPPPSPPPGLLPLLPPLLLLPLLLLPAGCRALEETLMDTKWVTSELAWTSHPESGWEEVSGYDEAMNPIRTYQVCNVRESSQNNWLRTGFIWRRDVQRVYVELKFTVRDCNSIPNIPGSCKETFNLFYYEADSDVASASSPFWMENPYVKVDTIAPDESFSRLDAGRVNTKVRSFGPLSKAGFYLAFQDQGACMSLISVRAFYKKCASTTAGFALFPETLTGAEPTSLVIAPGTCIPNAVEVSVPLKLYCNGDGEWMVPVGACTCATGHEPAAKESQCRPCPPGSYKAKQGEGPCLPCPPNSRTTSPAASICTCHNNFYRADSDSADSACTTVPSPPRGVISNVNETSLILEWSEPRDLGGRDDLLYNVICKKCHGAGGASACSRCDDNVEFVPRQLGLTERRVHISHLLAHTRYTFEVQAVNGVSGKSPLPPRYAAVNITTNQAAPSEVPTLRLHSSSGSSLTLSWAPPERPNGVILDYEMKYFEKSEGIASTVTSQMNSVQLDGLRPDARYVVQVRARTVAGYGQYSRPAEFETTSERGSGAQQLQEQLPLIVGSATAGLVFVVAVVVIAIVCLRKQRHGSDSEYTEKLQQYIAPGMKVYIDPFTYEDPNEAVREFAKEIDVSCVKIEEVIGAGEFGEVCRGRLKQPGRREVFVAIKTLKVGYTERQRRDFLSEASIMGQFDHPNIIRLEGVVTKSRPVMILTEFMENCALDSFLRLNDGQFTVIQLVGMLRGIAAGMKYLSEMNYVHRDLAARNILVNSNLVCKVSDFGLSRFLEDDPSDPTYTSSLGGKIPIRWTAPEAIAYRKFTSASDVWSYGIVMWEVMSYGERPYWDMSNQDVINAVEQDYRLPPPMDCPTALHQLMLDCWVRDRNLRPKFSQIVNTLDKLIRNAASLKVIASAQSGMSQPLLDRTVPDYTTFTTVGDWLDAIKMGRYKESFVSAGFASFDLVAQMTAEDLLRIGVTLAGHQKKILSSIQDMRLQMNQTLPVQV
Sequence of EPHB1 (human) (P54762 whole entry, looked up): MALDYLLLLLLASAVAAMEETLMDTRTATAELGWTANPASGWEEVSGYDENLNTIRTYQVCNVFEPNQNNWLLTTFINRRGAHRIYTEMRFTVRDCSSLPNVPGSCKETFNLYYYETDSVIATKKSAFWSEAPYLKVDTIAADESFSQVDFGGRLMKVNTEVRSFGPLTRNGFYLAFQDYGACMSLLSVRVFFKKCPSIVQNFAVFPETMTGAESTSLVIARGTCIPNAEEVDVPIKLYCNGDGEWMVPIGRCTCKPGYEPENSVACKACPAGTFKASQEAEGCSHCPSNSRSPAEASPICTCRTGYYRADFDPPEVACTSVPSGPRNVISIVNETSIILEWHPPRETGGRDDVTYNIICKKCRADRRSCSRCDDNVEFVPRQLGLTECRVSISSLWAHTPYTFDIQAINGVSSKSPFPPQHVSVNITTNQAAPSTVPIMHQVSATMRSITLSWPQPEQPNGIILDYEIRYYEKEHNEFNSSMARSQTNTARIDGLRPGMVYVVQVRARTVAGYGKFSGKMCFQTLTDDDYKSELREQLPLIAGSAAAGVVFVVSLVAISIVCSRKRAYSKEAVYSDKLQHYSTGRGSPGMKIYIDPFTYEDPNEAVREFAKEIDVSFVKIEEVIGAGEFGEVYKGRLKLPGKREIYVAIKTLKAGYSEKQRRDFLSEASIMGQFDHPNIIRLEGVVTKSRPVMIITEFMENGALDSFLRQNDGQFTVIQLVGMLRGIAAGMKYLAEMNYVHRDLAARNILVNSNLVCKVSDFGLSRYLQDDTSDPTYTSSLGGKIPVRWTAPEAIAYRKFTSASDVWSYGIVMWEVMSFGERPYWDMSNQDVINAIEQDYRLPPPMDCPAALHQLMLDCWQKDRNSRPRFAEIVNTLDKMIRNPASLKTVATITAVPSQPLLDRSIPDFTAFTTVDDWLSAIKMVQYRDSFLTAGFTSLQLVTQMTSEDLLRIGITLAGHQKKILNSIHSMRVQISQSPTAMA
Sequence of PLK1 (human) (P53350 whole entry, looked up): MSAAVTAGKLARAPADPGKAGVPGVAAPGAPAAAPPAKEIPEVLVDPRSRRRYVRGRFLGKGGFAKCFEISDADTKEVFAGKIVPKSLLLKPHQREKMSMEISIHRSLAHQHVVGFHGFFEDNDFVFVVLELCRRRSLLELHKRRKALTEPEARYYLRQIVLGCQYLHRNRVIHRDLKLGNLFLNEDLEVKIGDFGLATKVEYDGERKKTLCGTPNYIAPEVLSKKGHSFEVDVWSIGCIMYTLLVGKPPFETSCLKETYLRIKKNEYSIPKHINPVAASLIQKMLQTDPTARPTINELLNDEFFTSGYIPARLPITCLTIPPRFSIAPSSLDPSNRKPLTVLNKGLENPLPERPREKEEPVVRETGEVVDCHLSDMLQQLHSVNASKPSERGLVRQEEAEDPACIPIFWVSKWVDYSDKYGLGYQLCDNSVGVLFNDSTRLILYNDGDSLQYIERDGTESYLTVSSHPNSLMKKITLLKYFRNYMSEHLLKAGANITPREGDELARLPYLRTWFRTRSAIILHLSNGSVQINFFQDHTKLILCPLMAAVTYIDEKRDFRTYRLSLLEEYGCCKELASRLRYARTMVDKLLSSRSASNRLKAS
Sequence of MAPK13 (human) (O15264 whole entry, looked up): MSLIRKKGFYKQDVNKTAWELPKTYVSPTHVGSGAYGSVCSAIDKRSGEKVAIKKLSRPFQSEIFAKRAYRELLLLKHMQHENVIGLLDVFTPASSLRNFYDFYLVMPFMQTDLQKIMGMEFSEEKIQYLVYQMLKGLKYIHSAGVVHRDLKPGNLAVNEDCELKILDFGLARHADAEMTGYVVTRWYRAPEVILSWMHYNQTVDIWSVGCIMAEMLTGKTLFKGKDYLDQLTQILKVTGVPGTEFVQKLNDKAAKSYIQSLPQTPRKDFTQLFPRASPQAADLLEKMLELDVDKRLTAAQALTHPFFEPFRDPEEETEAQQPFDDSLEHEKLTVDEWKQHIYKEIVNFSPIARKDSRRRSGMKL

residual activity (IGF1R (human); compound 1.0 µM): 89%
residual activity (IGF1R (human); compound 10.0 µM): 67%
residual activity (MARK4 (human); compound 1.0 µM): 100%
residual activity (MARK4 (human); compound 10.0 µM): 86%
residual activity (EPHB3 (human); compound 1.0 µM): 116%
residual activity (EPHB3 (human); compound 10.0 µM): 103%
residual activity (LCK (mouse); compound 1.0 µM): 78%
residual activity (LCK (mouse); compound 10.0 µM): 98%
residual activity (MAP3K5 (human); compound 1.0 µM): 117%
residual activity (MAP3K5 (human); compound 10.0 µM): 111%
residual activity (SRC (human); compound 1.0 µM): 83%
residual activity (SRC (human); compound 10.0 µM): 130%
residual activity (CSK (human); compound 1.0 µM): 75%
residual activity (CSK (human); compound 10.0 µM): 89%
residual activity (EPHA4 (human); compound 1.0 µM): 89%
residual activity (EPHA4 (human); compound 10.0 µM): 89%
residual activity (PAK7 (human); compound 1.0 µM): 99%
residual activity (PAK7 (human); compound 10.0 µM): 80%
residual activity (MAP3K9 (human); compound 1.0 µM): 91%
residual activity (MAP3K9 (human); compound 10.0 µM): 89%
residual activity ([1]; compound 10.0 µM): 100%
residual activity (RPS6KA5 KD1 KD2 (human); compound 1.0 µM): 74%
residual activity (RPS6KA5 KD1 KD2 (human); compound 10.0 µM): 53%
residual activity (GSK3B (human); compound 1.0 µM): 74%
residual activity (GSK3B (human); compound 10.0 µM): 89%
residual activity (MAPK1 (human); compound 1.0 µM): 83%
residual activity (MAPK1 (human); compound 10.0 µM): 95%
residual activity (HIPK1 (human); compound 1.0 µM): 94%
residual activity (HIPK1 (human); compound 10.0 µM): 97%
residual activity (MAPK13 (human); compound 1.0 µM): 96%
residual activity (MAPK13 (human); compound 10.0 µM): 95%
residual activity (MAP3K1 (human); compound 1.0 µM): 69%
residual activity (MAP3K1 (human); compound 10.0 µM): 85%
residual activity (SYK (human); compound 1.0 µM): 105%
residual activity (SYK (human); compound 10.0 µM): 76%
residual activity (YES1 (human); compound 1.0 µM): 92%
residual activity (YES1 (human); compound 10.0 µM): 93%
residual activity (CAMKK2 (human); compound 1.0 µM): 69%
residual activity (CAMKK2 (human); compound 10.0 µM): 59%
residual activity (PAK6 (human); compound 1.0 µM): 98%
residual activity (PAK6 (human); compound 10.0 µM): 110%
residual activity (HIPK3 (human); compound 1.0 µM): 96%
residual activity (HIPK3 (human); compound 10.0 µM): 94%
residual activity (CLK2 (human); compound 1.0 µM): 75%
residual activity (CLK2 (human); compound 10.0 µM): 91%
residual activity (PRKAA1 or PRKAA2 (rat); compound 1.0 µM): 91%
residual activity (PRKAA1 or PRKAA2 (rat); compound 10.0 µM): 89%
residual activity (DAPK1 (human); compound 1.0 µM): 84%
residual activity (DAPK1 (human); compound 10.0 µM): 88%
residual activity (INSR (human); compound 1.0 µM): 96%
residual activity (INSR (human); compound 10.0 µM): 96%
residual activity (EPHB4 (human); compound 1.0 µM): 102%
residual activity (EPHB4 (human); compound 10.0 µM): 96%
residual activity (ROCK2 (rat); compound 1.0 µM): 120%
residual activity (ROCK2 (rat); compound 10.0 µM): 104%
residual activity (EPHB1 (human); compound 1.0 µM): 93%
residual activity (EPHB1 (human); compound 10.0 µM): 119%
residual activity (HIPK2 (human); compound 1.0 µM): 99%
residual activity (HIPK2 (human); compound 10.0 µM): 114%
residual activity (PLK1 (human); compound 1.0 µM): 93%
residual activity (PLK1 (human); compound 10.0 µM): 87%
residual activity (MAPK11 (human); compound 1.0 µM): 89%
residual activity (MAPK11 (human); compound 10.0 µM): 103%
residual activity (BRSK2 (human); compound 1.0 µM): 89%
residual activity (BRSK2 (human); compound 10.0 µM): 100%
residual activity (MAP3K7 TAB1 (human); compound 1.0 µM): 64%
residual activity (MAP3K7 TAB1 (human); compound 10.0 µM): 78%
residual activity (PKN2 (human); compound 1.0 µM): 90%
residual activity (PKN2 (human); compound 10.0 µM): 84%
Structure (SMILES): CC(C)(C#N)c1ccc(N2C(=O)OCc3cnc4ccc(-c5cnc6ccccc6c5)cc4c32)cc1

residual activity (IGF1R (human); compound 1.0 µM): 106%
residual activity (IGF1R (human); compound 10.0 µM): 106%
residual activity (MARK4 (human); compound 10.0 µM): 90%
residual activity (EPHB3 (human); compound 10.0 µM): 102%
residual activity (LCK (mouse); compound 1.0 µM): 100%
residual activity (LCK (mouse); compound 10.0 µM): 99%
residual activity (MAP3K5 (human); compound 1.0 µM): 102%
residual activity (MAP3K5 (human); compound 10.0 µM): 101%
residual activity (SRC (human); compound 1.0 µM): 105%
residual activity (SRC (human); compound 10.0 µM): 114%
residual activity (CSK (human); compound 1.0 µM): 87%
residual activity (CSK (human); compound 10.0 µM): 97%
residual activity (EPHA4 (human); compound 1.0 µM): 110%
residual activity (EPHA4 (human); compound 10.0 µM): 124%
residual activity (PAK7 (human); compound 1.0 µM): 86%
residual activity (PAK7 (human); compound 10.0 µM): 77%
residual activity (MAP3K9 (human); compound 1.0 µM): 99%
residual activity (MAP3K9 (human); compound 10.0 µM): 99%
residual activity (PRKCZ (human); compound 1.0 µM): 100%
residual activity (PRKCZ (human); compound 10.0 µM): 108%
residual activity ([1]; compound 1.0 µM): 85%
residual activity ([1]; compound 10.0 µM): 94%
residual activity (RPS6KA5 KD1 KD2 (human); compound 1.0 µM): 91%
residual activity (GSK3B (human); compound 10.0 µM): 92%
residual activity (HIPK1 (human); compound 1.0 µM): 92%
residual activity (HIPK1 (human); compound 10.0 µM): 101%
residual activity (MAPK13 (human); compound 1.0 µM): 109%
residual activity (MAPK13 (human); compound 10.0 µM): 123%
residual activity (MAP3K1 (human); compound 1.0 µM): 101%
residual activity (MAP3K1 (human); compound 10.0 µM): 97%
residual activity (SYK (human); compound 10.0 µM): 114%
residual activity (YES1 (human); compound 1.0 µM): 102%
residual activity (YES1 (human); compound 10.0 µM): 102%
residual activity (CAMKK2 (human); compound 1.0 µM): 92%
residual activity (CAMKK2 (human); compound 10.0 µM): 84%
residual activity (PAK6 (human); compound 1.0 µM): 102%
residual activity (PAK6 (human); compound 10.0 µM): 104%
residual activity (CLK2 (human); compound 1.0 µM): 104%
residual activity (CLK2 (human); compound 10.0 µM): 98%
residual activity (PRKAA1 or PRKAA2 (rat); compound 1.0 µM): 98%
residual activity (PRKAA1 or PRKAA2 (rat); compound 10.0 µM): 92%
residual activity (DAPK1 (human); compound 1.0 µM): 95%
residual activity (DAPK1 (human); compound 10.0 µM): 104%
residual activity (INSR (human); compound 10.0 µM): 107%
residual activity (EPHB4 (human); compound 1.0 µM): 91%
residual activity (EPHB4 (human); compound 10.0 µM): 99%
residual activity (ROCK2 (rat); compound 1.0 µM): 90%
residual activity (ROCK2 (rat); compound 10.0 µM): 88%
residual activity (EPHB1 (human); compound 1.0 µM): 115%
residual activity (EPHB1 (human); compound 10.0 µM): 126%
residual activity (HIPK2 (human); compound 1.0 µM): 107%
residual activity (HIPK2 (human); compound 10.0 µM): 103%
residual activity (PLK1 (human); compound 1.0 µM): 104%
residual activity (PLK1 (human); compound 10.0 µM): 96%
residual activity (MAPK11 (human); compound 1.0 µM): 96%
residual activity (MAPK11 (human); compound 10.0 µM): 106%
residual activity (BRSK2 (human); compound 1.0 µM): 98%
residual activity (BRSK2 (human); compound 10.0 µM): 105%
residual activity (MAP3K7 TAB1 (human); compound 1.0 µM): 99%
residual activity (MAP3K7 TAB1 (human); compound 10.0 µM): 104%
residual activity (PKN2 (human); compound 1.0 µM): 93%
residual activity (PKN2 (human); compound 10.0 µM): 88%
Structure (SMILES): Nc1cccc2c1CN(C1CCC(=O)NC1=O)C2=O (stereo unspecified)
